In patent US20200230126A1, “TARGETED THERAPEUTICS” (TARVEDA THERAPEUTICS, INC., priority 2017, published 2020):

Tests used:
Format in all cases: physicochemical
Solubility in water = test: Solubility in water
Text: As discussed above, the solubility of SDC-TRAP-0063 Sodium is driven primarily by pH. […] Reducing the pH allows the equilibrium to shift more to the lactone form and adversely impacts solubility. Dilute solutions of SDC-TRAP-0063 Sodium result in a lower pH with an increased risk of precipitation. The solubility of SDC-TRAP-0063 Sodium has also been seen to be adversely impacted by the use of 0.9% Sodium Chloride as a diluent. A common ion effect is the likely source of this observation.

[1] = Particulate formation in dosing solutions using 0.9% Sodium Chloride, 5% Mannitol and 5% Dextrose adjusted to the low USP pH limits, with rocking (appearance, pH, HPLC recovery); set-up: key to appearance: Conforms = clear and essentially free of visible particles
Method: A study was conducted with 0.6 mg/mL and 2.4 mg/mL solutions of SDC-TRAP-0063 Sodium using one of three diluents; 0.9% Sodium Chloride as a positive control, and 5% Dextrose and 5% Mannitol as potential new diluents (Table 2). Each diluent was prepared at the lower pH limit of USP to test a worst-case scenario for solubility (the starting pH was 4.5 for 0.9% Sodium Chloride and 5% Mannitol and 3.2 for 5% Dextrose). The SDC-TRAP-0063 Sodium dosing solutions were prepared in glass vials and then placed on a rocker. […]

[2] = Solubility at various pH in 5% Mannitol (HCl addition, about 24 hours equilibration, 0.2 μm filtration); set-up: key to appearance: Conforms = clear and essentially free of visible particles
Method: (§1) Experiments were performed to assess the solubility of SDC-TRAP-0063 Sodium as a function of varying pH.

[3] = Solubility at various pH in 0.9% Sodium Chloride (HCl addition, about 24 hours equilibration, 0.2 μm filtration); set-up: key to appearance: Conforms = clear and essentially free of visible particles; details: 0.9% Saline
Method: as §1

[4] = Head-to-head in-use test, 5% Mannitol dosing solution in IV bag, syringe and IV line with rocking
Method: A head-to-head in-use test of the SDC-TRAP-0063 Sodium 0.9% Sodium Chloride and 5% Mannitol dosing solutions was conducted. This study was intended to directly compare the two based on the specific clinical use direction for each diluent. In this study, the respective IV bags, syringes and IV lines were subjected to a rocking motion during the hold periods to mimic a worst case scenario for agitation of the dosing solution.
The 5% Mannitol dosing solution was tested in a syringe and IV line as designed for use in the clinic with the addition of continuous rocking to simulate a worst case for agitation of the samples (Table 6). This dosing solution was tested at the limits of intended concentrations of 3 mg/mL and 12 mg/mL of SDC-TRAP-0063 Sodium and with a 2 hour hold period in the IV bag, a 6 hour hold period in the syringe and IV line and a 2-hour simulated infusion to exceed the planned clinical timeframes.

[5] = In-use stability study of dosing solutions in 5% Mannitol (mixing container, syringe pump, administration set)
Method: In this study, SDC-TRAP-0063 sodium was dissolved in 5% Mannitol within the concentration range of 3-12 mg/mL. The stabilities of the SDC-TRAP-0063/Mannitol solution in an infusion container and during administration via a syringe pump were studied.
Dosing solutions of 3, 6 and 12 mg/mL of SDC-TRAP-0063 Na were prepared in 250 mL Intravia mixing containers. Pre-determined numbers of vials of SDC-TRAP-0063 Na were re-constituted with WFI and SDC-TRAP-0063 Na was transferred into mixing containers containing 5% mannitol. Each preparation was performed in duplicate.
An in-use test was performed to simulate the clinical infusion process. Freshly prepared dosing solutions were withdrawn from the Intravia containers with the specified syringe size and volume, plus an additional 2 mL for flushing the administration set. The volume of the IV administration set is O.7 mL; the 2 mL flush volume was selected according to standard pharmacy practice. After the administration set was flushed, the syringe was placed on a syringe pump and held at room temperature for 4 hours followed by a 2-hour infusion process. For the 15 mg dose level the simulation infusion was for 1 hour, because the minimal infusion rate specified by clinic was not less than 5 mL/hour. Samples were collected from the mixing containers at T0 and T2 hours and from the administration sets at T0 and from the bulk container at the end of infusion, at T5 hours for 15 mg sample and at T6 hours for all other samples, as outlined in Table 8.
A flexible bracketing design, intended to cover possible syringe volumes from 10 to 60 mL of nominal volumes, possible variation of the syringe fill volumes from 10 to 75% of the nominal syringe volume and concentration ranges of the dosing solutions from 3 to 12 mg/ml was executed in this study. The maximum fill volume for each syringe is limited to 75% of the nominal volume.

[6] = 0 molar percent HCl added, pH 9.9
[7] = 8.1 molar percent HCl added, pH 9.6
[8] = 14.4 molar percent HCl added, pH 9.1
[9] = 33.1 molar percent HCl added, pH 8.7
[10] = 35.5 molar percent HCl added, pH 8.7

In the case of `CCc1c2c(nc3ccc(OC(=O)N4CCC(CCn5ccc6cc(-n7c(O)nnc7-c7cc(C(C)C)c(O)cc7O)ccc65)CC4)cc13)-c1cc([C@@](O)(CC)C(=O)[O-])c(CO)c(=O)n1C2.[Na+]` [SDC-TRAP-0063 Sodium, Sodium (S)-2-(2-((4-(2-(5-(3-(2,4-dihydroxy-5-isopropylphenyl)-5-hydroxy-4H-1,2,4-triazol-4-yl)-1H-indol-1-yl)ethyl)piperidine-1-carbonyl)oxy)-12-ethyl-8-(hydroxymethyl)-9-oxo-9,11-dihydroindolizino[1,2-b]quinolin-7-yl)-2-hydroxybutanoate], the solubility (Solubility in water) is reported as greater than 52.5 mg/mL, the pH ([1]; 0.9% Sodium Chloride, pH 4.5, 0.6 mg/mL) is reported as 8.7 and the appearance ([1]; 0.9% Sodium Chloride, pH 4.5, 0.6 mg/mL, 0 hours) is reported as “Conforms^1”. The appearance ([1]; 0.9% Sodium Chloride, pH 4.5, 0.6 mg/mL, 6 hours) was “Precipitate”, the appearance ([1]; 0.9% Sodium Chloride, pH 4.5, 0.6 mg/mL, 24 hours) was “Precipitate” and the pH ([1]; 0.9% Sodium Chloride, pH 4.5, 2.4 mg/mL) was 9.4. For the same molecule, the appearance ([1]; 0.9% Sodium Chloride, pH 4.5, 2.4 mg/mL, 0 hours) was “Conforms^1”, the appearance ([1]; 0.9% Sodium Chloride, pH 4.5, 2.4 mg/mL, 6 hours) was “Precipitate” and the appearance ([1]; 0.9% Sodium Chloride, pH 4.5, 2.4 mg/mL, 24 hours) was “Precipitate”. The pH ([1]; 5% Dextrose, pH 3.2, 0.6 mg/mL) was 7.5, the appearance ([1]; 5% Dextrose, pH 3.2, 0.6 mg/mL, 0 hours) was “Conforms^1” and the appearance ([1]; 5% Dextrose, pH 3.2, 0.6 mg/mL, 6 hours) was “Precipitate”. The appearance ([1]; 5% Dextrose, pH 3.2, 0.6 mg/mL, 24 hours) was “Precipitate”, the pH ([1]; 5% Dextrose, pH 3.2, 2.4 mg/mL) was 9.1 and the appearance ([1]; 5% Dextrose, pH 3.2, 2.4 mg/mL, 0 hours) was “Conforms^1”. The appearance ([1]; 5% Dextrose, pH 3.2, 2.4 mg/mL, 6 hours) was “Conforms^1”, the appearance ([1]; 5% Dextrose, pH 3.2, 2.4 mg/mL, 24 hours) was “Precipitate” and the pH ([1]; 5% Mannitol, pH 4.5, 0.6 mg/mL) was 8.6. The appearance ([1]; 5% Mannitol, pH 4.5, 0.6 mg/mL, 0 hours) was “Conforms^1”, the appearance ([1]; 5% Mannitol, pH 4.5, 0.6 mg/mL, 6 hours) was “Precipitate” and the appearance ([1]; 5% Mannitol, pH 4.5, 0.6 mg/mL, 24 hours) was “Precipitate”. The pH ([1]; 5% Mannitol, pH 4.5, 2.4 mg/mL) was 9.8, the appearance ([1]; 5% Mannitol, pH 4.5, 2.4 mg/mL, 0 hours) was “Conforms^1” and the appearance ([1]; 5% Mannitol, pH 4.5, 2.4 mg/mL, 6 hours) was “Conforms^1”. For the same molecule, the appearance ([1]; 5% Mannitol, pH 4.5, 2.4 mg/mL, 24 hours) was “Conforms^1”, the appearance ([2]; 0 molar percent HCl added, pH 10.1) was “Conforms^2” and the “SDC-TRAP-0063 Sodium concentration in the solution” value (“SDC-TRAP-0063 Sodium concentration” below) ([2]; 0 molar percent HCl added, pH 10.1, after 24 hours of rocking, starting 23.6 mg/mL) was >23.6 (after mg/mL. The “SDC-TRAP-0063 Sodium concentration” value ([2]; 10.5 molar percent HCl added, pH 9.9) was greater than 23.5 mg/mL, the “SDC-TRAP-0063 Sodium concentration” value ([2]; 18.2 molar percent HCl added, pH 9.9) was greater than 23.3 mg/mL and the “SDC-TRAP-0063 Sodium concentration” value ([2]; 33.1 molar percent HCl added, pH 9.1) was 20.2 mg/mL. For the same molecule, the “SDC-TRAP-0063 Sodium concentration” value ([2]; 35.5 molar percent HCl added, pH 9.4) was 20.9 mg/mL, the precipitation ([2]; maximum concentration of 12 mg/mL) was “does not result in precipitation” and the “SDC-TRAP-0063 Sodium concentration” value [3, 6] was 22.9 mg/mL. The appearance [3, 6] was “Conforms^1”, the “SDC-TRAP-0063 Sodium concentration” value [3, 7] was 23.4 mg/mL and the appearance [3, 7] was “Slightly hazy solution”. For the same molecule, the “SDC-TRAP-0063 Sodium concentration” value [3, 8] was 21.4 mg/mL, the appearance [3, 8] was “Slightly hazy solution” and the “SDC-TRAP-0063 Sodium concentration” value [3, 9] was 18.6 mg/mL. The appearance [3, 9] was “Slightly hazy solution”, the appearance ([3]; 33.1 molar percent HCl added, pH 8.7, after 1 hour) was “gelation after 1 hour” and the “SDC-TRAP-0063 Sodium concentration” value [3, 10] was 13.7 mg/mL. For the same molecule, the appearance [3, 10] was “Slightly hazy solution”, the appearance ([3]; 35.5 molar percent HCl added, pH 8.7, after 1 hour) was “gelation after 1 hour” and the precipitation ([4]; 3 mg/mL and 12 mg/mL, all time points, continuous rocking) was “no precipitation was observed at any time point”. The “Recovery of SDC-TRAP-0063 Sodium (Calculated vs. Initial concentration)” value ([4]; 3 mg/mL, Bulk solution, 8 hours (6 + 2 infusion)) was 98.0%, the “Recovery of SDC-TRAP-0063 Sodium (Calculated vs. Initial concentration)” value ([4]; 3 mg/mL, IV bag, 0 hours) was 100.0% and the “Recovery of SDC-TRAP-0063 Sodium (Calculated vs. Initial concentration)” value ([4]; 3 mg/mL, IV bag, 2 hours) was 102.5%. For the same molecule, the “Recovery of SDC-TRAP-0063 Sodium (Calculated vs. Initial concentration)” value ([4]; 3 mg/mL, IV line (infusion end), 8 hours (6 + 2 infusion)) was 98.7%, the “Recovery of SDC-TRAP-0063 Sodium (Calculated vs. Initial concentration)” value ([4]; 3 mg/mL, IV line (infusion start), 6 hours, low volume in syringe, complete sample not obtained) was 93.5%^1 and the “Recovery of SDC-TRAP-0063 Sodium (Calculated vs. Initial concentration)” value ([4]; 3 mg/mL, IV line, 0 hours) was 97.2%. For the same molecule, the “Recovery of SDC-TRAP-0063 Sodium (Calculated vs. Initial concentration)” value ([4]; 12 mg/mL, Bulk solution, 8 hours (6 + 2 infusion)) was 105.4%, the “Recovery of SDC-TRAP-0063 Sodium (Calculated vs. Initial concentration)” value ([4]; 12 mg/mL, IV bag, 0 hours) was 100.0% and the “Recovery of SDC-TRAP-0063 Sodium (Calculated vs. Initial concentration)” value ([4]; 12 mg/mL, IV bag, 2 hours) was 103.9%. The “Recovery of SDC-TRAP-0063 Sodium (Calculated vs. Initial concentration)” value ([4]; 12 mg/mL, IV line (infusion end), 8 hours (6 + 2 infusion)) was 104.3%, the “Recovery of SDC-TRAP-0063 Sodium (Calculated vs. Initial concentration)” value ([4]; 12 mg/mL, IV line (infusion start), 6 hours) was 101.6% and the “Recovery of SDC-TRAP-0063 Sodium (Calculated vs. Initial concentration)” value ([4]; 12 mg/mL, IV line, 0 hours) was 103.6%. The total impurities ([5]; 2-hour storage in mixing containers and total of 6 hours simulated hold and infusion (5 hours for 15 mg dose)) was “within the acceptable ranges”, the HPLC assay values ([5]; 3, 6 and 12 mg/mL, samples collected during the study) was “did not show any trends and were within expected ranges” and the “appearance of test samples” value ([5]; 3, 6 and 12 mg/mL, up to 6 hours) was “clear solutions essentially free of particles”. For the same molecule, the in-use stability profile ([5]; concentration range of 3-12 mg/mL) was “acceptable stability profile”.
